Data as given in US10407430B2, “Janus kinase 1 selective inhibitor and pharmaceutical use thereof” (YANG JI CHEMICAL CO., LTD., priority 2015, dated 2019).

Key:
Type in all cases: biochemical
[1] = molecular target: T1, Human JAK3 (Homo sapiens, UniProt P52333); test: In-vitro kinase inhibition test, JAK3; conditions: for inhibition at 1 µM: compound at 1 uM, read-out: JAK3 kinase-phosphorylation inhibitory level (% inhibition)
T1 construct: purchased Millipore, Germany
T1 sequence (P52333 1-1124): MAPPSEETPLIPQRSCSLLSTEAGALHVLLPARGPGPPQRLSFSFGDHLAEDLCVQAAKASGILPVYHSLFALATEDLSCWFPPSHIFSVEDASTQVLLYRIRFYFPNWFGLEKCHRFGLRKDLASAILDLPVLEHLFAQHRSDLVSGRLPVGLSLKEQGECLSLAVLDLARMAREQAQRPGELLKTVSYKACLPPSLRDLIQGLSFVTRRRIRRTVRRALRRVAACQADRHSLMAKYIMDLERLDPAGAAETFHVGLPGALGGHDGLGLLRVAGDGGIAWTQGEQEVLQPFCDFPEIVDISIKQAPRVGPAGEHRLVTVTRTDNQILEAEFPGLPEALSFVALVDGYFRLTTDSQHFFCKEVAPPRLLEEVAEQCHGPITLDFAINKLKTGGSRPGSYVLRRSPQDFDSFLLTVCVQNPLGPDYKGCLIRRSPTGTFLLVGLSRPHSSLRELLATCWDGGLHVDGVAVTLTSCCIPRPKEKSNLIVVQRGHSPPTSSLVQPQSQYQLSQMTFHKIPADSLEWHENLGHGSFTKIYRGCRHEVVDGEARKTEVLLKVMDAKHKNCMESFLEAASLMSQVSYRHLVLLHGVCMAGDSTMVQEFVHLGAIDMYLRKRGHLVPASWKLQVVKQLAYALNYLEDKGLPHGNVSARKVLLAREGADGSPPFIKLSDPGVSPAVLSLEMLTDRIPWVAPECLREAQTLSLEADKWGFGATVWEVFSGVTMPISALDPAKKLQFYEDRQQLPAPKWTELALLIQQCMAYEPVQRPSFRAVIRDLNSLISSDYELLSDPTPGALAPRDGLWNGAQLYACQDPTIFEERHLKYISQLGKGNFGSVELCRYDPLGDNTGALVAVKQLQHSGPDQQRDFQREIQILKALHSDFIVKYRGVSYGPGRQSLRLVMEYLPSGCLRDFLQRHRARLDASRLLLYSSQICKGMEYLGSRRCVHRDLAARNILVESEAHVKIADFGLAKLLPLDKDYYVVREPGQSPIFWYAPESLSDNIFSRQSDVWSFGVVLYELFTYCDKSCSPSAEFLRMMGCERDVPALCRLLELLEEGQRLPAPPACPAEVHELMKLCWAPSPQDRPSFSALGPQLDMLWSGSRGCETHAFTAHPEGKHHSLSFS

[2] = molecular target: T2, Human TYK2 (Homo sapiens, UniProt P29597); test: In-vitro kinase inhibition test, TYK2; conditions: for inhibition at 1 µM: compound at 1 uM, read-out: TYK2 kinase-phosphorylation inhibitory level (% inhibition)
T2 construct: purchased Millipore, Germany
T2 sequence (P29597 whole entry): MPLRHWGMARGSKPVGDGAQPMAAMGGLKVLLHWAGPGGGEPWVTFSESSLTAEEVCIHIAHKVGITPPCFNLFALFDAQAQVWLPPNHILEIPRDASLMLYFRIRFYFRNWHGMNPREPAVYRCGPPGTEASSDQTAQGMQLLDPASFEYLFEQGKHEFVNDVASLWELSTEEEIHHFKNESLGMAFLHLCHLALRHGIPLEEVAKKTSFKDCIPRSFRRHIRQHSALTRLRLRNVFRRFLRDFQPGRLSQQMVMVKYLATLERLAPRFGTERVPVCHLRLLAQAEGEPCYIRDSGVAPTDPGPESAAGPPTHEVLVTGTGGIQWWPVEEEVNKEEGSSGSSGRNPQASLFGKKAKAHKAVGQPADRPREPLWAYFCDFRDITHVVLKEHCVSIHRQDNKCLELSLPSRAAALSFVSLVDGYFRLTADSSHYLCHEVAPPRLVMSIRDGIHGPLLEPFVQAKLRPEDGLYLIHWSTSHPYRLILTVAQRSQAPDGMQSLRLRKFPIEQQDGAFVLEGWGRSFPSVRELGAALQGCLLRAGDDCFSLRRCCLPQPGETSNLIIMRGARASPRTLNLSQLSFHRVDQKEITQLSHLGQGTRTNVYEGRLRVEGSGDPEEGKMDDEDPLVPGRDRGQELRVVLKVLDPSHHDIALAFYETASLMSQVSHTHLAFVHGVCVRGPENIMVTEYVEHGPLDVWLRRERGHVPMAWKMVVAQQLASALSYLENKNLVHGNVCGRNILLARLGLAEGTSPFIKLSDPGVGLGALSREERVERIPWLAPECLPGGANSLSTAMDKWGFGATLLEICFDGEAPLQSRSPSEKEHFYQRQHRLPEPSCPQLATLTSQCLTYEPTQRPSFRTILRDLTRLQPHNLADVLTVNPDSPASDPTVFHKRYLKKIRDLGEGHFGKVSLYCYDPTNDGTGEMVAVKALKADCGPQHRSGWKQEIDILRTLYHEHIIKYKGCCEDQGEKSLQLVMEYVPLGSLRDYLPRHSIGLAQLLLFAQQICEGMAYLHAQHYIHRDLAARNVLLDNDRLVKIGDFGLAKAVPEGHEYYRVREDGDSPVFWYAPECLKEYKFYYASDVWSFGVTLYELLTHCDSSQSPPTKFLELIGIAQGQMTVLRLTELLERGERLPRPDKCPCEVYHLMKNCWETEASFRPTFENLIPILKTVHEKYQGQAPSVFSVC
Procedure: (§1) Human-derived JAK1, JAK2, JAK3 and TYK2 (Millipore, Germany) were used as kinases. Each kinase was diluted with an appropriate buffer as described below, and then mixed with reaction reagents.
(§2) 3-morpholinopropane-1-sulfonic acid (MOPS) and EDTA were dissolved in deionized water at a concentration of 20 mM and 1 mM, respectively, and then 100 μL of β-mercaptoethanol, 10 μL of Brij-35™, 5 mL of glycerol, and 100 mg of bovine serum albumin (BSA), each per 100 mL of the solution, were added to the solution, thereby preparing a dilution buffer for JAK2, JAK3, and TYK2.
(§3) Each compound was dissolved in a 100%-DMSO solution at a concentration of about 50 μM. This prepared solution was reacted with reaction reagents in each well of a 96-well plate until a final concentration of the compound reached 1 μM. A detailed experimental method for each kinase is as follows.
(§4) After reaction for about 40 minutes at room temperature, the reaction was stopped by adding 5 uL of a 3% (v/v) phosphoric acid solution.
(§5) The inhibitory levels (% inhibition) represent a percentage of reduction in phosphorylation activity in each test group with respect to the phosphorylation activity of a corresponding kinase in a negative control group lacking any of the compounds synthesized in the examples. % inhibition=[(Scintillation value of Test compound non-treatment group−Scintillation value of Test compound treatment group)/(Scintillation value of Test compound non-treatment group)]×100

[3] = molecular target: T3, Human JAK1 (Homo sapiens, UniProt P23458); test: In-vitro kinase inhibition test, JAK1; conditions: for inhibition at 1 µM: compound at 1 uM, read-out: JAK1 kinase-phosphorylation inhibitory level (% inhibition); for JAK1/JAK2: ratio of % inhibition of JAK1 to JAK2 at 1 uM
T3 construct: purchased Millipore, Germany
T3 sequence (P23458 whole entry): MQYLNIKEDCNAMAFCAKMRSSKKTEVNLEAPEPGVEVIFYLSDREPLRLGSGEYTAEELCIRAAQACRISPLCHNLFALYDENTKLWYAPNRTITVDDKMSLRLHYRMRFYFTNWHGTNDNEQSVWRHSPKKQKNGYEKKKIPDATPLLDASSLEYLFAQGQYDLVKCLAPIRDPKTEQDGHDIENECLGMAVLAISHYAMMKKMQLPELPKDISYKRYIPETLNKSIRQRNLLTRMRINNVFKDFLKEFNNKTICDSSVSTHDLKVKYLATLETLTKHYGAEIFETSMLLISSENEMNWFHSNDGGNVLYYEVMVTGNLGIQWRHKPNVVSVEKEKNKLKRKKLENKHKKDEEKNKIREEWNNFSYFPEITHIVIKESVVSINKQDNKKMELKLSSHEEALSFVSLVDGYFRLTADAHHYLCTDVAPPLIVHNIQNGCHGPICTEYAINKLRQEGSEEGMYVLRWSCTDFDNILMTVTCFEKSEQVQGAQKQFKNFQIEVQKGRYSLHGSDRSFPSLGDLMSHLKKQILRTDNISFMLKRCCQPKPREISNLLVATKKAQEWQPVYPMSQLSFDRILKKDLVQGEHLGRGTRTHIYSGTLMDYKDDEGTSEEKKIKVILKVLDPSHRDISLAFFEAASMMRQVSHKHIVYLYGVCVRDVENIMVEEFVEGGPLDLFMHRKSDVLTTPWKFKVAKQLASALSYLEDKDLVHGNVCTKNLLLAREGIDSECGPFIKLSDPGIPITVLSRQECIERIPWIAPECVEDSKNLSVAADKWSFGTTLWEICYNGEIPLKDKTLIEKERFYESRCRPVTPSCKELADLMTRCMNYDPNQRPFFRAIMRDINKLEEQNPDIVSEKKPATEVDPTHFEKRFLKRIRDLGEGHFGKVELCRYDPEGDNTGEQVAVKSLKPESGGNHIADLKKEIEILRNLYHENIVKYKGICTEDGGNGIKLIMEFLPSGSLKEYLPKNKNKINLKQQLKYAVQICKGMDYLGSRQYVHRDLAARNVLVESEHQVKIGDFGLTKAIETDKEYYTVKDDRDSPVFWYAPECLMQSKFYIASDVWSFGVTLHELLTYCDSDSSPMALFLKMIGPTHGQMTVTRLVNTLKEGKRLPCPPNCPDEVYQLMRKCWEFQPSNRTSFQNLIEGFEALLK

[4] = molecular target: T4, Human JAK2 (Homo sapiens, UniProt O60674); test: In-vitro kinase inhibition test, JAK2; conditions: for inhibition at 1 µM: compound at 1 uM, read-out: JAK2 kinase-phosphorylation inhibitory level (% inhibition)
T4 construct: purchased Millipore, Germany
T4 sequence (O60674 whole entry): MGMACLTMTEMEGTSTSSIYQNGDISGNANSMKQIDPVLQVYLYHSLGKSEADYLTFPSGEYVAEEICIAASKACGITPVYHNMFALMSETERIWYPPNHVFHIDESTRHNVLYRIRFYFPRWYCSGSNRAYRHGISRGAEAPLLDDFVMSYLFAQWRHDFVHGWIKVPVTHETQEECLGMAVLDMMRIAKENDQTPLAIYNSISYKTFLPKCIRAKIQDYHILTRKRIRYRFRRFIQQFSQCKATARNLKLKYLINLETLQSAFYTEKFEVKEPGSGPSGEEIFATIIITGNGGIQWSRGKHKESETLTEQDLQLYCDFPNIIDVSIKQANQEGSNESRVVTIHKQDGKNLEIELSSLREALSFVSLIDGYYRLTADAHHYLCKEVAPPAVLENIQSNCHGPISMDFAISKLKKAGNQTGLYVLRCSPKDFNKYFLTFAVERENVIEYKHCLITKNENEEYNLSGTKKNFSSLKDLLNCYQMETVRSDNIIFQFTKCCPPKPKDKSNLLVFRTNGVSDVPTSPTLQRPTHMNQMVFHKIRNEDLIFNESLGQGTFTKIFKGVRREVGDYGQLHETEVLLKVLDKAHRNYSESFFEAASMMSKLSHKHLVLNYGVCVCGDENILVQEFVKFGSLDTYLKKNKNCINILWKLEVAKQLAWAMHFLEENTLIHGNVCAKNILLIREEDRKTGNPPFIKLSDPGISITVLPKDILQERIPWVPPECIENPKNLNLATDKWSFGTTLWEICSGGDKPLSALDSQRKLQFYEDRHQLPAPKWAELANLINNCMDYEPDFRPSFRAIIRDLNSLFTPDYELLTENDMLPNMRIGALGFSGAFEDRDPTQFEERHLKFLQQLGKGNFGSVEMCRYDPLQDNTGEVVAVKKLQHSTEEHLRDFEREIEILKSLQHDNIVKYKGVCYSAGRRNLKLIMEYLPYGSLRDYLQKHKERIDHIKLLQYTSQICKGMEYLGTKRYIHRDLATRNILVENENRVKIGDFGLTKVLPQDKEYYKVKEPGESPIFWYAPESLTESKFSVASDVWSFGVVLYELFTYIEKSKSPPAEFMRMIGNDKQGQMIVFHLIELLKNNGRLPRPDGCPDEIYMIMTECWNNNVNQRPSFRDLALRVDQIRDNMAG
Procedure: as §1, §2, §3, §4, §5

| inhibition at 1 µM [1] | inhibition at 1 µM [2] | inhibition at 1 µM [3] | JAK1/JAK2 [3] | inhibition at 1 µM [4] | IC50 [1] | IC50 [2] | IC50 [3] | IC50 [4] | SMILES |
| --- | --- | --- | --- | --- | --- | --- | --- | --- | --- |
| 21% | 67% | 93% | 1.94 | 48% |  |  |  |  | CN(c1ncnc2[nH]ccc12)[C@@H]1CCN(S(=O)(=O)c2ccccc2[N+](=O)[O-])C1 [Example 21, (R)—N-methyl-N-(1-((2-nitrophenyl)sulfonyl)pyrrolidine-3-yl)-7H-pyrrolo[2,3-d]pyrimidine-4-amine] |
| 74% | 99% | 100% | 1.03 | 97% |  |  |  |  | CN(c1ncnc2[nH]ccc12)[C@@H]1CCN(S(=O)(=O)c2cccc([N+](=O)[O-])c2)C1 [Example 22, (R)—N-methyl-N-(1-((3-nitrophenyl)sulfonyl)pyrrolidine-3-yl)-7H-pyrrolo[2,3-d]pyrimidine-4-amine] |
| 31% | 94% | 100% | 1.19 | 84% |  |  |  |  | CN(c1ncnc2[nH]ccc12)[C@@H]1CCN(S(=O)(=O)c2ccc([N+](=O)[O-])cc2)C1 [Example 23, (R)—N-methyl-N-(1-((4-nitrophenyl)sulfonyl)pyrrolidine-3-yl)-7H-pyrrolo[2,3-d]pyrimidine-4-amine] |
| 8% | 87% | 95% | 1.79 | 53% |  |  |  |  | Cc1cccc(S(=O)(=O)N2CC[C@@H](N(C)c3ncnc4[nH]ccc34)C2)c1 [Example 24, (R)—N-methyl-N-(1-(m-tolylsulfonyl)pyrrolidine-3-yl)-7H-pyrrolo[2,3-d]pyrimidine-4-amine] |
| 10% | 68% | 97% | 2.31 | 42% |  |  |  |  | Cc1ccc(S(=O)(=O)N2CC[C@@H](N(C)c3ncnc4[nH]ccc34)C2)cc1 [Example 25, (R)—N-methyl-N-(1-tosylpyrrolidine-3-yl)-7H-pyrrolo[2,3-d]pyrimidine-4-amine] |
| 10% | 71% | 98% | 2.23 | 44% |  |  |  |  | COc1ccc(S(=O)(=O)N2CC[C@@H](N(C)c3ncnc4[nH]ccc34)C2)cc1 [Example 26, (R)—N-(1-((4-methoxyphenyl)sulfonyl)pyrrolidine-3-yl)-N-methyl-7H-pyrrolo[2,3-d]pyrimidine-4-amine] |
| 4% | 56% | 96% | 4.57 | 21% |  |  |  |  | CN(c1ncnc2[nH]ccc12)[C@@H]1CCN(S(=O)(=O)c2ccc(C(F)(F)F)cc2)C1 [Example 27, (R)—N-methyl-N-(1-((4-(trifluoromethyl)phenyl)sulfonyl)pyrrolidine-3-yl)-7H-pyrrolo[2,3-d]pyrimidine-4-amine] |
| 23% | 82% | 99% | 1.74 | 57% |  |  |  |  | CN(c1ncnc2[nH]ccc12)[C@@H]1CCN(S(=O)(=O)c2ccc3ccccc3c2)C1 [Example 28, (R)—N-methyl-N-(1-(naphthalene-2-ylsulfonyl)pyrrolidine-3-yl)-7H-pyrrolo[2,3-d]pyrimidine-4-amine] |
| 10% | 65% | 91% | 4.33 | 21% |  |  |  |  | CN(c1ncnc2[nH]ccc12)[C@@H]1CCN(S(=O)(=O)N2CCCCC2)C1 [Example 29, (R)—N-methyl-N-(1-(piperidine-1-ylsulfonyl)pyrrolidine-3-yl)-7H-pyrrolo[2,3-d]pyrimidine-4-amine] |
| 13% | 44% | 87% | 14.50 | 6% |  |  |  |  | CN(c1ncnc2[nH]ccc12)[C@@H]1CCN(S(=O)(=O)N2CCOCC2)C1 [Example 30, (R)—N-methyl-N-(1-(morpholinosulfonyl)pyrrolidine-3-yl)-7H-pyrrolo[2,3-d]pyrimidine-4-amine] |
| 3% | 30% | 67% | 2.31 | 29% |  |  |  |  | N#Cc1cccc(S(=O)(=O)N2CC[C@@H](Nc3ncnc4[nH]ccc34)C2)c1 [Example 32, (R)-3-((3-((7H-pyrrolo[2,3-d]pyrimidine-4-yl)amino)pyrrolidine-1-yl)sulfonyl)benzonitrile] |
| 63% | 94% | 97% | 1.07 | 91% |  |  |  |  | CCN(c1ncnc2[nH]ccc12)[C@@H]1CCN(C(=O)CC#N)C1 [Example 33, (R)-3-(3-(ethyl(7H-pyrrolo[2,3-d]pyrimidine-4-yl)amino)pyrrolidine-1-yl)-3-oxopropanenitrile] |
| 19% | 92% | 97% | 1.13 | 86% |  |  |  |  | CCN(c1ncnc2[nH]ccc12)[C@@H]1CCN(S(=O)(=O)c2cccc(C#N)c2)C1 [Example 34, (R)-3-((3-(ethyl(7H-pyrrolo[2,3-d]pyrimidine-4-yl)amino)pyrrolidine-1-yl)sulfonyl)benzonitrile] |
| 14% | 37% | 88% | 2.59 | 34% |  |  |  |  | N#CCC(=O)N1CC[C@@H](N(CC2CC2)c2ncnc3[nH]ccc23)C1 [Example 35, (R)-3-(3-((cyclopropylmethyl)(7H-pyrrolo[2,3-d]pyrimidine-4-yl)amino)pyrrolidine-1-yl)-3-oxopropanenitrile] |
| 10% | 57% | 87% | 2.18 | 40% |  |  |  |  | N#Cc1cccc(S(=O)(=O)N2CC[C@@H](N(CC3CC3)c3ncnc4[nH]ccc34)C2)c1 [Example 36, (R)-3-((3-((cyclopropylmethyl)(7H-pyrrolo[2,3-d]pyrimidine-4-yl)amino)pyrrolidine-1-yl)sulfonyl)benzonitrile] |
| 8% | -3% | 49% | 49.00 | 1% |  |  |  |  | CN(c1ncnc2[nH]ccc12)C1CCN(C(=O)CC#N)CC1 [Example 37, 3-(4-(methyl(7H-pyrrolo[2,3-d]pyrimidine-4-yl)amino)piperidine-1-yl)-3-oxopropanenitrile] |
| 77% | 97% | 97% | 1.03 | 94% | 147 nM | 18.8 nM | 4.2 nM | 19 nM | CN(c1ncnc2[nH]ccc12)C1CCN(S(=O)(=O)c2ccccc2)CC1 [Example 38, N-methyl-N-(1-(phenylsulfonyl)piperidine-4-yl)-7H-pyrrolo[2,3-d]pyrimidine-4-amine] |
| 1% | 69% | 87% | 1.47 | 59% |  |  |  |  | CN(c1ncnc2[nH]ccc12)C1CCN(S(=O)(=O)c2cccc(C#N)c2)CC1 [Example 39, 3-((4-(methyl(7H-pyrrolo[2,3-d]pyrimidine-4-yl)amino)piperidine-1-yl)sulfonyl)benzonitrile] |
| 81% | 93% | 99% | 1.19 | 83% |  |  |  |  | CN(c1ncnc2[nH]ccc12)[C@@H]1CCCN(C(=O)CC#N)C1 [Example 40, (R)-3-(3-(methyl(7H-pyrrolo[2,3-d]pyrimidine-4-yl)amino)piperidine-1-yl)-3-oxopropanenitrile] |
| 39% | 79% | 92% | 1.44 | 64% |  |  |  |  | CN(c1ncnc2[nH]ccc12)[C@@H]1CCCN(S(=O)(=O)c2cccc(C#N)c2)C1 [Example 41, (R)-3-((3-(methyl(7H-pyrrolo[2,3-d]pyrimidine-4-yl)amino)piperidine-1-yl)sulfonyl)benzonitrile] |
